Experimental data taken from patent US11584775B2, “C4-modified oleanolic acid derivatives for inhibition of IL-17 and other uses” (REATA PHARMACEUTICALS, INC., priority 2015, dated 2023).

What was measured:
[1] = tested on: hIL17; assay: IL-17 release from differentiated primary human T-cells (IL-17A HTRF assay); assay type: cell-based; conditions: inhibition of IL-17A levels; primary human CD4+ T cells differentiated into Th17 cells, 46-hour incubation
In short: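 Cryopreserved primary human CD4+ T cells were activated with anti-CD3/CD28 beads and driven to Th17 with TGF-β, IL-6, IL-23 and IL-1β in the presence of compound (2-500 nM or 4-1000 nM) for 46 h at 37° C. Supernatant IL-17A was quantified by HTRF against a standard curve and normalized to DMSO. IC50s came from variable-slope fits, with viability read by CyQuant.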

[2] = tested on: IFNγ-induced Nitric Oxide production; assay: Nitric oxide production assay in RAW 264.7 mouse macrophages; assay type: cell-based; conditions: RAW264.7, suppression of IFNγ-induced NO production normalized to cell viability (WST-1), RAW 264.7, 24 hours IFNγ
In short: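 Cells pre-treated 2 h with compound (0.4-200 nM or 2-1000 nM) in RPMI 1640 + 0.5% FBS, then stimulated with recombinant mouse IFNγ for 24 h at 37 °C. Nitrite measured by Griess reagent, viability by WST-1; IC50 from NO suppression normalized to viability and to DMSO/IFNγ controls.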

[3] = tested on: NRF2; assay: AREc32 luciferase reporter assay; assay type: cell-based, human; conditions: EC2×: concentration required to increase GST ARE Luciferase reporter activity by 2-fold; AREc32 cells, 19 hours
In short: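 AREc32 cells (MCF-7 stably carrying eight rat GSTA2 ARE copies driving firefly luciferase) treated 19 h with compound (0.4–200 nM or 2–1000 nM), triplicate. Luminescence normalized to DMSO as fold-induction; variable-slope fit capped at 50-fold; EC2× = concentration giving 2-fold induction.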

[4] = molecular target: T1, human RORγ (Homo sapiens, UniProt P51449); assay: RORγ assay (GAL4-RORγ hybrid luciferase reporter, inverse-agonist activity); assay type: cell-based; conditions: GAL4-RORγ hybrid reporter cells, 23 hours
T1 sequence (P51449 269-508 limits assumed): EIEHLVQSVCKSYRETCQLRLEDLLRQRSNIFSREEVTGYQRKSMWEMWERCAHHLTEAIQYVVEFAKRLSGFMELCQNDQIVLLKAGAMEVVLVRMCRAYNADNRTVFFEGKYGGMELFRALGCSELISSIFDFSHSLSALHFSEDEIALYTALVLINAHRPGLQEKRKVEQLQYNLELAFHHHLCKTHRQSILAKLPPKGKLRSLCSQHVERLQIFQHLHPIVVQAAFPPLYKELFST
In short: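 Human cell line expressing GAL4-DBD/RORγ hybrid with UAS-driven luciferase, treated in triplicate with compound (0.4–200 nM or 2–1000 nM) for 23 h at 37 °C. Luminescence normalized to DMSO; viability measured in parallel by multiplex assay. IC50 for RORγ and viability by variable-slope nonlinear regression.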

Row | SMILES | IC50 [1] | IC50 [4] | IC50 [2] | EC2x: concentration giving 2-fold induction of ARE luciferase reporter [3]
1 | COC(=O)[C@]12CCC(C)(C)C[C@H]1[C@H]1C(=O)C=C3[C@@]4(C)C=C(C#N)C(=O)[C@@](C)(NC(C)=O)[C@@H]4CC[C@@]3(C)[C@]1(C)CC2 [Compound T12, methyl (4aS,6aR,6bS,8aR,9S,12aS,14aR,14bS)-9-acetamido-11-cyano-2,2,6a,6b,9,12a-hexamethyl-10,14-dioxo-1,3,4,5,6,6a,6b,7,8,8a,9,10,12a,14,14a,14b-hexadecahydropicene-4a(2H)-carboxylate] | 81 nM | 419 nM | > 1000 nM | >1000 nM
2 | COC(=O)[C@]12CCC(C)(C)C[C@H]1[C@H]1C(=O)C=C3[C@@]4(C)C=C(C#N)C(=O)[C@](C)(CO)[C@@H]4CC[C@@]3(C)[C@]1(C)CC2 [Comparison Compound #301, reference compound] | 17 nM | 144 nM | 1.8 nM | 8 nM
3 | CC(=O)OC[C@]1(C)C(=O)C(C#N)=C[C@]2(C)C3=CC(=O)[C@@H]4[C@@H]5CC(C)(C)CC[C@]5(C(=O)NCC(F)(F)F)CC[C@@]4(C)[C@]3(C)CC[C@H]21 [Compound T23, ((4R,4aR,6aS,6bR,8aS,12aS,12bR,14bS)-2-cyano-4,6a,6b, 11,11,14b-hexamethyl-3,13-dioxo-8a-((2,2,2-trifluoroethyl)carbamoyl)-3,4,4a,5,6,6a,6b,7,8,8a,9,10,11,12,12a,12b,13,14b-octadecahydropicen-4-yl)methyl acetate] | 68 nM | 145 nM | 150 nM | 484 nM
4 | COC(=O)[C@]12CCC(C)(C)C[C@H]1[C@H]1C(=O)C=C3[C@@]4(C)C=C(C#N)C(=O)[C@](C)(O)[C@@H]4CC[C@@]3(C)[C@]1(C)CC2 [Compound T6, methyl (4aS,6aR,6bS,8aR,9R,12aS,14aR,14bS)-11-cyano-9-hydroxy-2,2,6a,6b,9,12a-hexamethyl-10,14-dioxo-1,3,4,5,6,6a,6b,7,8,8a,9,10,12a,14,14a,14b-hexadecahydropicene-4a(2H)-carboxylate] | 32 nM | 115 nM | 9.2 nM | 30 nM
5 | CC(=O)OC[C@]1(C)C(=O)C(C#N)=C[C@]2(C)C3=CC(=O)[C@@H]4[C@@H]5CC(C)(C)CC[C@]5(c5nnc(C)o5)CC[C@@]4(C)[C@]3(C)CC[C@H]21 [Compound T43, ((4R,4aR,6aS,6bR,8aS,12aS,12bR,14bS)-2-cyano-4,6a,6b, 11,11,14b-hexamethyl-8a-(5-methyl-1,3,4-oxadiazol-2-yl)-3,13-dioxo-3,4,4a,5,6,6a,6b,7,8,8a,9,10,11,12,12a,12b,13,14b-octadecahydropicen-4-yl)methyl acetate] | 46 nM | 146 nM | 110 nM | 369 nM
6 | C[C@H](O)[C@]1(C)C(=O)C(C#N)=C[C@]2(C)C3=CC(=O)[C@]45OC(=O)[C@@]6(CCC(C)(C)C[C@H]64)CC[C@@]5(C)[C@]3(C)CC[C@@H]12 [Compound T48, (4R,4aR,6aR,6bS,8aS,12aR,12bS,14bS)-4-((S)-1-hydroxyethyl)-4,6a,6b, 11,11,14b-hexamethyl-3,13,16-trioxo-4,4a,5,6,6a,6b,7,8,10,11,12,12a,13,14b-tetradecahydro-3H,9H-12b,8a-(epoxymethano)picene-2-carbonitrile] | 13 nM | 162 nM | 1.2 nM | 3 nM

More lines, in order of falling IC50 [1], values ahead:

Row | IC50 [1] | IC50 [4] | SMILES | IC50 [2] | EC2x: concentration giving 2-fold induction of ARE luciferase reporter [3]
7 | 81 nM | 204 nM | CCNC(=O)[C@]12CCC(C)(C)C[C@H]1[C@H]1C(=O)C=C3[C@@]4(C)C=C(C#N)C(=O)C(C)(C)[C@@H]4CC[C@@]3(C)[C@]1(C)CC2 [Comparison Compound #3, reference compound] | 3.4 nM | 32 nM
8 | 67 nM | 463 nM | CC1(C)CC[C@]2(NC(=O)C(C)(F)F)CC[C@]3(C)[C@H](C(=O)C=C4[C@@]5(C)C=C(C#N)C(=O)[C@@](C)(CO)[C@@H]5CC[C@]43C)[C@@H]2C1 [Compound T28, N-((4aS,6aR,6bS,8aR,9R,12aS,14aR,14bS)-11-cyano-9-(hydroxymethyl)-2,2,6a,6b,9,12a-hexamethyl-10,14-dioxo-1,3,4,5,6,6a,6b,7,8,8a,9,10,12a,14,14a,14b-hexadecahydropicen-4a(2H)-yl)-2,2-difluoropropanamide] | 21.1 nM | 117 nM
9 | 32 nM | 222 nM | Cc1nnc([C@]23CCC(C)(C)C[C@H]2[C@H]2C(=O)C=C4[C@@]5(C)C=C(C#N)C(=O)C(C)(C)[C@@H]5CC[C@@]4(C)[C@]2(C)CC3)o1 [Comparison Compound #8, reference compound] | 2 nM | 15 nM
10 | 24 nM | 91 nM | COCOC[C@@]1(C)C(=O)C(C#N)=C[C@]2(C)C3=CC(=O)[C@@H]4[C@@H]5CC(C)(C)CC[C@]5(C(=O)OC)CC[C@@]4(C)[C@]3(C)CC[C@@H]12 [Comparison Compound #302, reference compound] | 13.1 nM | 78 nM
